Results as given in PubChem BioAssay AID1259408 (Genetic Toxicology Data Bank (GENE-TOX), 2018).
Calls of active or inactive are those of the source. The rule behind the calls is not given here.

System: GENE-TOX genotoxicity assays, various organisms and cells
Assay: GENE-TOX mutagenicity studies
Conditions: for call: Assay Type: In vivo carcinogenicity studies
[1] = Species/Cell Type: Mammalian polychromatic erythrocytes, Assay Type: Micronucleus test, chromosome aberrations, Assay Code: MNTT, Evaluation Type: Evaluation A (Pre-1980)
[2] = Species/Cell Type: Mouse, Sex: Male, Assay Type: Sperm morphology, Assay Code: SPI-, Evaluation Type: Evaluation A (Pre-1980)
[3] = Species/Cell Type: Nonhuman, Assay Type: Sister-chromatid exchange (SCE) in vitro, Assay Code: SC2+, Evaluation Type: Evaluation B (Post-1980)
[4] = Species/Cell Type: Human, Assay Type: Sister-chromatid exchange (SCE) in vitro, Assay Code: SC1T, Evaluation Type: Evaluation B (Post-1980)
[5] = Species/Cell Type: Fischer rat embryo (RLV/1706) cells, Assay Type: Cell transformation, viral enhanced, Assay Code: CTR+, Evaluation Type: Evaluation A (Pre-1980)
[6] = Species/Cell Type: Nonhuman, Assay Code: CCGT, Evaluation Type: Evaluation A (Pre-1980)
[7] = Species/Cell Type: Drosophila melanogaster, Assay Type: Sex-linked recessive lethal gene mutation, Assay Code: SRL+, Evaluation Type: Evaluation A (Pre-1980)
[8] = Species/Cell Type: Nonhuman, Assay Code: CCG+L, Evaluation Type: Evaluation A (Pre-1980)
[9] = Species/Cell Type: Salmonella typhimurium (one or more of the five standard strains: TA98, TA100, TA1535, TA1537, and TA1538), Assay Type: Histidine reverse gene mutation, Ames assay, Assay Code: SAL+, Evaluation Type: Evaluation A (Pre-1980)
[10] = Species/Cell Type: Rodents, Sex: Male, Assay Type: Dominant lethal test, Assay Code: DLT-, Evaluation Type: Evaluation A (Pre-1980)
[11] = Species/Cell Type: Chinese hamster lung (V79) cells, Assay Type: Forward gene mutation at the HPRT or ouabain locus, Assay Code: V79+, Evaluation Type: Evaluation A (Pre-1980)
[12] = Species/Cell Type: Salmonella typhimurium (one or more of the five standard strains: TA98, TA100, TA1535, TA1537, and TA1538), Assay Type: Histidine reverse gene mutation, Ames assay, Assay Code: SALT, Evaluation Type: Evaluation A (Pre-1980)

CN(C)C=O
mutagenic call [1]: no conclusion
mutagenic call [2]: inactive; negative
mutagenic call [3]: active; positive
mutagenic call (Species/Cell Type: Rat primary hepatocytes, Assay Type: Unscheduled DNA synthesis (UDS) in vitro, DNA effects, Assay Code: UDP-, Evaluation Type: Evaluation A (Pre-1980)): inactive; negative
mutagenic call (Species/Cell Type: Syrian hamster embryo (SHE) cells, Assay Type: Cell transformation, clonal assay, Assay Code: CTC-, Evaluation Type: Evaluation A (Pre-1980)): inactive; negative

CCn1c(=O)c2c(ncn2CC)n(CC)c1=O
mutagenic call (Species/Cell Type: Allium cepa, Assay Type: Chromosome aberrations, Assay Code: ALC-, Evaluation Type: Evaluation A (Pre-1980)): inactive; negative

C=COCC
mutagenic call [3]: active; positive

COc1cc(C(=O)CCN2CCCCC2)ccc1O
mutagenic call (Species/Cell Type: Salmonella typhimurium, Assay Type: Forward and reverse gene mutation, host-mediated assay, Assay Code: HMA-, Evaluation Type: Evaluation A (Pre-1980)): inactive; negative

CCNC(=O)/C=C(C)/C=C/C=C(C)/C=C/c1c(C)cc(OC)c(C)c1C
mutagenic call (Species/Cell Type: Mouse (C3H/10T1/2) cells, Assay Type: Cell transformation, Assay Code: CTH-, Evaluation Type: Evaluation A (Pre-1980)): inactive; negative

C[C@]12CC[C@@H]3c4ccc(O)cc4CC[C@H]3[C@@H]1CCC2=O
call (Species/Cell Type: Nonhuman, Assay Code: CCG+, Evaluation Type: Evaluation A (Pre-1980)): active; positive

O=c1oc2cc3occc3cc2c2ccncc12
mutagenic call [4]: no conclusion

CC(Cl)(Cl)Cl
mutagenic call [5]: active; positive
mutagenic call [1]: no conclusion
mutagenic call [2]: inactive; negative
call [6]: no conclusion
mutagenic call [3]: active; positive

O=C1C=CCO1
mutagenic call (Species/Cell Type: Bacillus subtilis (H17 vs M45), Assay Type: Rec-assay, spot test, DNA effects (bacterial DNA repair), Assay Code: REW-, Evaluation Type: Evaluation A (Pre-1980)): inactive; negative

O[C@@H]1[C@H](O)[C@@H](O)c2cc3ccc4cccc5ccc(c2[C@@H]1O)c3c45
mutagenic call (Species/Cell Type: Chinese hamster lung (V79) cells, Assay Type: Forward gene mutation at the HPRT or ouabain locus, Assay Code: V79-*, Activation: With metabolic activation, Evaluation Type: Evaluation A (Pre-1980)): inactive; negative

N=NN
mutagenic call [7]: active; positive

CCN(CC)c1ccc2c(-c3ccccc3C(=O)O)c3ccc(=[N+](CC)CC)cc-3oc2c1
mutagenic call (Species/Cell Type: Bacillus subtilis (H17 vs M45T), Assay Type: Rec-assay, spot test, DNA effects (bacterial DNA repair), Assay Code: REXT, Evaluation Type: Evaluation A (Pre-1980)): no conclusion
mutagenic call (Species/Cell Type: Drosophila melanogaster, Assay Type: Sex-linked recessive lethal gene mutation, Assay Code: SRLT, Evaluation Type: Evaluation A (Pre-1980)): no conclusion
call [6]: no conclusion
mutagenic call (Species/Cell Type: Nonhuman, Assay Type: Sister-chromatid exchange (SCE) in vivo, Assay Code: SC3T, Evaluation Type: Evaluation B (Post-1980)): no conclusion
mutagenic call (Species/Cell Type: Saccharomyces cerevisiae, Assay Type: Mitotic recombination or gene conversion, Assay Code: YEC-, Evaluation Type: Evaluation A (Pre-1980)): inactive; negative
mutagenic call (Species/Cell Type: Salmonella typhimurium (one or more of the five standard strains: TA98, TA100, TA1535, TA1537, and TA1538), Assay Type: Histidine reverse gene mutation, Ames assay, Assay Code: SAL+*, Activation: With metabolic activation, Evaluation Type: Evaluation A (Pre-1980)): active; positive

CC(C)(C)N1CC1
mutagenic call (Species/Cell Type: Schizosaccharomyces pombe, Assay Type: Reverse gene mutation, Assay Code: YEZ+, Evaluation Type: Evaluation A (Pre-1980)): active; positive

NC(=O)N/N=C/c1ccc([N+](=O)[O-])o1
mutagenic call (Species/Cell Type: Bacillus subtilis (H17 vs M45), Assay Type: Rec-assay, spot test, DNA effects (bacterial DNA repair), Assay Code: REW+, Evaluation Type: Evaluation A (Pre-1980)): active; positive
mutagenic call (Species/Cell Type: Chinese hamster ovary (CHO) cells, Assay Type: Forward gene mutation at the HPRT locus, Assay Code: CHO-, Evaluation Type: Evaluation B (Post-1980)): inactive; negative
mutagenic call (Species/Cell Type: Escherichia coli WP2, Assay Type: Tryptophan reverse gene mutation, Assay Code: WP2T, Evaluation Type: Evaluation A (Pre-1980)): no conclusion
mutagenic call (Species/Cell Type: Escherichia coli WP2 UVRA, Assay Type: Tryptophan reverse gene mutation, Assay Code: WPU+D, Dose Response: With dose response, Evaluation Type: Evaluation A (Pre-1980)): active; positive
mutagenic call [5]: active; positive
mutagenic call (Species/Cell Type: Human diploid fibroblasts, Assay Type: Unscheduled DNA synthesis (UDS) in vitro, DNA effects, Assay Code: UDH-, Evaluation Type: Evaluation A (Pre-1980)): inactive; negative
mutagenic call [1]: no conclusion
mutagenic call [2]: inactive; negative
mutagenic call (Species/Cell Type: Neurospora crassa, Assay Type: Forward gene mutation, Assay Code: NEF+, Evaluation Type: Evaluation A (Pre-1980)): active; positive
mutagenic call (Species/Cell Type: Neurospora crassa, Assay Type: Reverse gene mutation, Assay Code: NER+, Evaluation Type: Evaluation A (Pre-1980)): active; positive
mutagenic call (Species/Cell Type: Nonhuman bone marrow, Assay Type: Chromosome aberrations, in vivo, Assay Code: CY#-, Evaluation Type: Evaluation A (Pre-1980)): inactive; negative
call [8]: active; positive
mutagenic call [9]: active; positive

NC(Cc1cccc(F)c1)C(=O)O (stereo not drawn)
mutagenic call (Species/Cell Type: Neurospora crassa, Assay Type: Aneuploidy, chromosome aberrations, Assay Code: NEN-, Evaluation Type: Evaluation A (Pre-1980)): inactive; negative

CN(C)CCCN1c2ccccc2CCc2ccccc21
mutagenic call [4]: no conclusion
mutagenic call [10]: inactive; negative

COC1OC[C@@H](C(C)=O)[C@H]1C (stereo partly drawn)
mutagenic call (Species/Cell Type: Nonhuman, Assay Type: Sister-chromatid exchange (SCE) in vitro, Assay Code: SC2T, Evaluation Type: Evaluation B (Post-1980)): no conclusion

C=Cc1ccc(C)cc1
mutagenic call (Species/Cell Type: Human lymphocytes, Assay Type: Sister-chromatid exchange (SCE) in vitro, Assay Code: SCL+D, Dose Response: With dose response, Evaluation Type: Evaluation B (Post-1980)): active; positive
mutagenic call (Species/Cell Type: Human, Assay Type: Sister-chromatid exchange (SCE) in vitro, Assay Code: SC1+D, Dose Response: With dose response, Evaluation Type: Evaluation B (Post-1980)): active; positive

ClC1=C(Cl)[C@]2(Cl)C3C(Cl)C(Cl)CC3[C@@]1(Cl)C2(Cl)Cl (stereo partly drawn)
mutagenic call [11]: active; positive
call [8]: active; positive
mutagenic call (Species/Cell Type: Rodents, Sex: Male, Assay Type: Dominant lethal test, Assay Code: DLTT, Evaluation Type: Evaluation A (Pre-1980)): no conclusion
mutagenic call (Species/Cell Type: Zea mays (corn), Assay Type: Gene mutation, Assay Code: ZEM+, Evaluation Type: Evaluation A (Pre-1980)): active; positive

O=[N+]([O-])C1c2ccccc2-c2ccccc21
mutagenic call (Species/Cell Type: Escherichia coli WP2 UVRA, Assay Type: Tryptophan reverse gene mutation, Assay Code: WPU+, Evaluation Type: Evaluation A (Pre-1980)): active; positive

Oc1ccc2c(cc3ccc4cccc5ccc2c3c45)c1O
mutagenic call (Species/Cell Type: Mouse prostate cells, Assay Type: Cell transformation, Assay Code: CTM+D, Dose Response: With dose response, Evaluation Type: Evaluation A (Pre-1980)): active; positive
mutagenic call (Species/Cell Type: Syrian hamster embryo (SHE) cells, Assay Type: Cell transformation, clonal assay, Assay Code: CTC+, Evaluation Type: Evaluation A (Pre-1980)): active; positive

C=CCOC(N)=O
mutagenic call (Species/Cell Type: Nonhuman, Assay Type: Sister-chromatid exchange (SCE) in vivo, Assay Code: SC3+D, Dose Response: With dose response, Evaluation Type: Evaluation B (Post-1980)): active; positive

Cc1ccc2ccc3c4ccccc4c(C)c4ccc1c2c43
mutagenic call [7]: active; positive

Cc1c2ccccc2c(CO)c2c3c(ccc12)[C@@H](O)[C@H](O)C=C3
mutagenic call [11]: active; positive
call [8]: active; positive

O[C@@H]1[C@H]2O[C@H]2c2cc3ccc4ccccc4c3cc2[C@H]1O
mutagenic call [11]: active; positive

O=C(O)C(Cl)(Cl)Cl
mutagenic call (Species/Cell Type: Mammalian polychromatic erythrocytes, Assay Type: Micronucleus test, chromosome aberrations, Assay Code: MNT+, Evaluation Type: Evaluation B (Post-1980)): active; positive
mutagenic call [12]: no conclusion
mutagenic call (Species/Cell Type: Vicia faba, Assay Type: Chromosome aberrations, Assay Code: VIC+, Evaluation Type: Evaluation A (Pre-1980)): active; positive

O[C@@H]1C=Cc2cc3ccc4ccccc4c3cc2[C@H]1O
mutagenic call (Species/Cell Type: Nonhuman, Assay Type: Sister-chromatid exchange (SCE) in vitro, Assay Code: SC2+D, Dose Response: With dose response, Evaluation Type: Evaluation B (Post-1980)): active; positive
mutagenic call [12]: no conclusion

Cn1c([N+](=O)[O-])cnc1COC(N)=O
mutagenic call [1]: no conclusion
mutagenic call [10]: inactive; negative
mutagenic call [9]: active; positive

Cc1c(N(C)C)c(=O)n(-c2ccccc2)n1C
mutagenic call (Species/Cell Type: Nonhuman, Assay Type: Sister-chromatid exchange (SCE) in vitro, Assay Code: SC2-, Evaluation Type: Evaluation A (Pre-1980)): inactive; negative

O=C(CCCCCCCCC(=O)N1CC1)N1CC1
mutagenic call (Species/Cell Type: Hordeum vulgare (barley), Assay Type: Chromosome aberrations, Assay Code: HOC+, Evaluation Type: Evaluation A (Pre-1980)): active; positive
mutagenic call (Species/Cell Type: Vicia faba, Assay Type: Chromosome aberrations, Assay Code: VIC+D, Dose Response: With dose response, Evaluation Type: Evaluation A (Pre-1980)): active; positive
